A value given as a limit tells only on which side of the number the result lay.

For assay [1], the system named is CWR22R. In words: Antiproliferative activity against human 22Rv1 cells after 96 hrs by propidium iodide staining-based fluorescence assay. Format: functional, cell-based.
In assay [2] the test system is DU-145. In words: Antiproliferative activity against human DU145 cells after 96 hrs by propidium iodide staining-based fluorescence assay. Format: functional, cell-based.
For assay [3], the system named is LNCaP. The assay can be described thus: Antiproliferative activity against human LNCAP cells after 96 hrs by propidium iodide staining-based fluorescence assay. Format: functional, cell-based.
Assay [4] concerns VCaP. The assay can be described thus: Antiproliferative activity against human VCaP cells after 96 hrs by propidium iodide staining-based fluorescence assay. Format: functional, cell-based.
For assay [5], the system named is CWR22R. The assay can be described thus: Potency index, ratio of enzalutamide IC50 to test compound IC50 for human 22Rv1 cells. Format: functional.
The subject of assay [6] is DU-145. In words: Potency index, ratio of enzalutamide IC50 to test compound IC50 for human DU145 cells. Format: functional.
The subject of assay [7] is LNCaP. The assay can be described thus: Potency index, ratio of enzalutamide IC50 to test compound IC50 for human LNCAP cells. Format: functional.
Assay [8] concerns VCaP. In words: Potency index, ratio of enzalutamide IC50 to test compound IC50 for human VCaP cells. Format: functional.

As for `N#Cc1ccc(NC(=O)c2ccc(Sc3ccc(O)cc3)cc2)cc1C(F)(F)F`, the Activity entry in the assay on CWR22R [1], with DU-145 [2], with LNCaP [3] and with VCaP [4] was “Dose-dependent effect” in each case. The “Ratio IC50” value with CWR22R [5], with DU-145 [6], with LNCaP [7] and in the assay on VCaP [8] was “<=8” throughout.
`O=C(Nc1ccc(C(F)(F)F)cc1)c1ccc(Sc2ccc(O)cc2)cc1`: the Activity result in the assay on CWR22R [1], in the assay on DU-145 [2], in the assay on LNCaP [3] and with VCaP [4] was “Dose-dependent effect” each time. The “Ratio IC50” value in the assay with CWR22R [5], in the assay on DU-145 [6], in the assay on LNCaP [7] and with VCaP [8] was “<=8” in each case.
As to `O=C(Nc1cccc(C(F)(F)F)c1)c1ccc(Sc2cccc(C(F)(F)F)c2)cc1`, the Activity result in the assay on CWR22R [1], in the assay on DU-145 [2], in the assay with LNCaP [3] and in the assay with VCaP [4] was “Dose-dependent effect” each time. The “Ratio IC50” value in the assay with CWR22R [5], in the assay with DU-145 [6], in the assay with LNCaP [7] and with VCaP [8] was “<=8” each time.
On to `O=C(Nc1cccc(S(F)(F)(F)(F)F)c1)c1ccc(S(=O)(=O)c2ccc(O)cc2)cc1`, for which the Activity entry in the assay on CWR22R [1], with DU-145 [2], in the assay with LNCaP [3] and in the assay on VCaP [4] was “Dose-dependent effect” each time. The “Ratio IC50” value with CWR22R [5], in the assay on DU-145 [6], in the assay with LNCaP [7] and in the assay with VCaP [8] was “<=8” each time.
Take `O=C(Nc1ccccc1C(F)(F)F)c1ccc(S(=O)(=O)c2ccc(O)cc2)cc1`: the Activity result with CWR22R [1], with DU-145 [2], with LNCaP [3] and with VCaP [4] was “Dose-dependent effect” throughout. Further, the “Ratio IC50” value in the assay with CWR22R [5], with DU-145 [6], with LNCaP [7] and in the assay with VCaP [8] was “<=8” each time.
`N#Cc1ccc(NC(=O)c2ccc(S(=O)(=O)c3ccc(O)cc3)cc2)cc1C(F)(F)F`: the Activity entry in the assay on CWR22R [1], with DU-145 [2], with LNCaP [3] and in the assay with VCaP [4] was “Dose-dependent effect” each time. Further, the “Ratio IC50” value in the assay with CWR22R [5], in the assay with DU-145 [6], in the assay with LNCaP [7] and in the assay on VCaP [8] was “<=8” throughout.
`O=C(Nc1ccccc1C(F)(F)F)c1ccc(Sc2ccc(O)cc2)cc1`: the Activity entry with CWR22R [1], in the assay with DU-145 [2], with LNCaP [3] and with VCaP [4] was “Dose-dependent effect” each time. The “Ratio IC50” value in the assay with CWR22R [5], in the assay with DU-145 [6], in the assay on LNCaP [7] and in the assay with VCaP [8] was “<=8” throughout.
Consider `O=C(Nc1ccc([N+](=O)[O-])c(C(F)(F)F)c1)c1ccc(Sc2ccc(O)cc2)cc1`, for which the Activity entry in the assay on CWR22R [1], in the assay with DU-145 [2], in the assay with LNCaP [3] and with VCaP [4] was “Dose-dependent effect” each time. For the same compound, the “Ratio IC50” value in the assay with CWR22R [5], in the assay with DU-145 [6], in the assay on LNCaP [7] and in the assay on VCaP [8] was “<=8” in each case.
Take `O=C(Nc1cccc(S(F)(F)(F)(F)F)c1)c1ccc(Sc2ccc(O)cc2)cc1`: the Activity entry with CWR22R [1], in the assay with DU-145 [2], in the assay with LNCaP [3] and in the assay on VCaP [4] was “Dose-dependent effect” in each case. Besides, the “Ratio IC50” value in the assay with CWR22R [5], with DU-145 [6], in the assay with LNCaP [7] and in the assay with VCaP [8] was “<=8” throughout.
`O=C(Nc1cccc(C(F)(F)F)c1)c1ccc(Sc2ccc(O)cc2)cc1`: the Activity entry with CWR22R [1], in the assay on DU-145 [2], in the assay with LNCaP [3] and with VCaP [4] was “Dose-dependent effect” each time. Further, the “Ratio IC50” value in the assay on CWR22R [5], with DU-145 [6], in the assay on LNCaP [7] and with VCaP [8] was “<=8” throughout.
For `O=C(Nc1ccc(S(F)(F)(F)(F)F)cc1)c1ccc([S+]([O-])c2ccc(O)cc2)cc1` (stereo not given), the Activity entry in the assay with CWR22R [1], in the assay with DU-145 [2], in the assay on LNCaP [3] and with VCaP [4] was “Dose-dependent effect” throughout. Moreover, the “Ratio IC50” value in the assay with CWR22R [5], with DU-145 [6], with LNCaP [7] and in the assay with VCaP [8] was “<=8” throughout.
Regarding `O=C(Nc1cccc(C(F)(F)F)c1)c1ccc(S(=O)(=O)c2cccc(C(F)(F)F)c2)cc1`, the IC50 entry with CWR22R [1], in the assay with DU-145 [2], in the assay on LNCaP [3] and in the assay with VCaP [4] was “Nd(Insoluble)” each time.
For the compound `O=C(Nc1cccc(C(F)(F)F)c1)c1ccc(S(=O)(=O)c2ccc(O)cc2)cc1`, the Activity entry with CWR22R [1], with DU-145 [2], in the assay on LNCaP [3] and in the assay with VCaP [4] was “Dose-dependent effect” in each case. Further, the “Ratio IC50” value in the assay with CWR22R [5], in the assay with DU-145 [6], in the assay with LNCaP [7] and with VCaP [8] was “<=8” throughout.
Regarding `O=C(Nc1cc(C(F)(F)F)cc(C(F)(F)F)c1)c1ccc(S(=O)(=O)c2ccc(O)cc2)cc1`, the Activity result in the assay with CWR22R [1], in the assay on DU-145 [2], in the assay on LNCaP [3] and in the assay on VCaP [4] was “Dose-dependent effect” in each case. The “Ratio IC50” value in the assay with CWR22R [5], in the assay on DU-145 [6], with LNCaP [7] and in the assay with VCaP [8] was “<=8” in each case.
`O=C(Nc1cc(C(F)(F)F)cc(C(F)(F)F)c1)c1ccc(Sc2ccc(O)cc2)cc1`: the Activity result with CWR22R [1], with DU-145 [2], with LNCaP [3] and in the assay on VCaP [4] was “Dose-dependent effect” throughout. Further, the “Ratio IC50” value in the assay with CWR22R [5], in the assay with DU-145 [6], with LNCaP [7] and in the assay on VCaP [8] was “<=8” each time.
Turning to `O=C(Nc1ccccc1C(F)(F)F)c1ccc([S+]([O-])c2ccc(O)cc2)cc1` (stereo not given), the Activity result in the assay with CWR22R [1], with DU-145 [2], in the assay on LNCaP [3] and with VCaP [4] was “Dose-dependent effect” each time.

For the origin of these results see ChEMBL document CHEMBL4261530, “Rational design and synthesis of novel phenylsulfonyl-benzamides as anti-prostate cancer agents” (Medchemcomm, 2017).
